# Tested on: orf19.2175 (CPD1) expression in C. albicans
# Assay: RNA dot blotting of C. albicans genes after BF1 treatment
# Format: cell-based, Candida albicans
# Conditions: 3 μg/mL BF1
# Description: To corroborate the microarray results, four genes were checked with RNA dot blotting for their expression levels under the same conditions tested in microarray analysis: orf19.5604 (MDR1), orf19.2175 (CPD1), orf19.2896 (SOU1) and orf19.5565. The total RNA of a control sample without furanone was used to synthesize complementary DNA (cDNA) using OneStep RT-PCR Kit (QIAGEN Inc.) by following the manufacture's protocol. The annealing temperature was optimized based on the primers and was performed at 50° C. for 1 minute in each cycle. The length of the template cDNA was 457 bp, 364 bp, 455 bp and 423 bp for orf19.5604 (MDR1), orf19.2175 (CPD1), orf19.2896 (SOU1) and orf19.5565, respectively.
# The DNA probes labeled with Digoxigenin (DIG)-dUTP were then generated using the same primer sets and PCR DIG Probe Synthesis Kit (Roche® Applied Science, Mannheim, Germany) by following the manufacture's protocol except that the annealing temperature was 48° C. for orf19.2175 and orf19.5565, and 51° C. for orf19.2896 and orf19.5604. Total RNA was isolated from cultures treated under the same conditions as in DNA microarray experiments. […] The light signal was recorded using Biomax X-ray films from Kodak (Rochester, N.Y.). […]
smiles,measurement,value
"CCCCC1=C(Br)/C(=C/Br)OC1=O [BF1, 4-bromo-5Z-(bromomethylene)-3-butylfuran-2-one]",induction of gene CPD1 in RNA dot blotting,10 fold
